A short description of data set [1]: Intrinsic dissolution rate in SGF or FeSSIF. In kind it is physicochemical. Particulars: 37° C., 100 rpm, 5-120 min, HPLC. As for the experimental part: Samples of crystal form I (25 mg each) were weighed, placed into intrinsic dissolution rate metal modules, and maintained at a pressure of 20 pounds for 30 s and then placed in 20 mL of SGF (Simulated Gastric Fluid) or FeSSIF (Fed-State Simulated Intestinal Fluid) physiological medium, respectively. The medium was maintained at 37° C. and a rotation speed at 100 rpm throughout the process. Then, at 5, 15, 30, 45, 60, 90, and 120 min, respectively, a 0.5 mL aliquot of the solution was taken and filtered through a 0.22 μm aqueous microfiltration membrane. And the volume was replenished with 0.5 mL of the corresponding physiological medium. The concentration was determined according to an HPLC content assay method.

Data set [2] can be described thus: Crystal form stability study (PXRD, DSC, TGA on day 0, 5, 10). It counts as physicochemical. To be noted: 10 days. Here is the method:
Samples of crystal form I were subjected to physical stability tests under different storage conditions. The storage conditions were respectively: • (1) High temperature: 60° C. • (2) High humidity: RH 90%±5% • (3) Under light exposure: 4500 lx±500 lx, with the total illumination from the light source reaching 1.2×10^6 lux·hr PXRD, DSC, and TGA tests were performed on the samples on day 0, day 5, and day 10, respectively, to investigate the stability of the samples under high temperature, high humidity, and light exposure conditions. The experimental results are detailed in FIG. 8 to FIG. 16 of the description.

For `CCCC[C@H](OC(C)=O)c1ccccc1C(=O)O` [crystal form I, L-arginine (S)-2-(1-acetoxy-n-pentyl)benzoate], the “Dissolution rate compared with the solid obtained in Comparative Example 1” value in data set [1] was “significantly higher”. The “Change of powder diffraction pattern, DSC trace and TGA trace (physical stability, crystal form transformation)” value in data set [2] (high humidity RH 90%±5%) is given as “no significant difference”; in data set [2] (high temperature 60° C.), “no significant difference”; in data set [2] (light exposure 4500 lx±500 lx, total illumination 1.2×10^6 lux·hr), “no significant difference”.

For the origin of these results see patent publication US20260193163A1, “CRYSTAL FORM OF L-ARGININE (S)-2-(1-ACETOXY-N-PENTYL)BENZOATE, AND PREPARATION METHOD THEREFOR AND USE THEREOF” (JIANGSU KANION PHARMACEUTICAL CO., LTD., priority 2023, published 2026).
